Test results as given in ChEMBL document CHEMBL1201862, “PubChem BioAssay data set” (2004).
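The compound was tested at five concentrations on cells cultured in 96-well plates, with a 48-hour exposure period. Here, GI50 denotes the concentration required for 50% inhibition of growth.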 The source made the active and inactive calls. Rule as the data show it: active = GI50 up to about 1.1 µM and inactive = higher.

What was measured:
Assay in all cases: inhibition of tumour cell growth, NCI panel, 48 h
SK-OV-3 = tested on: SK-OV-3
UACC-257 = tested on: UACC-257
SW-620 = tested on: SW-620
RXF 393 = tested on: RXF 393
T47D = tested on: T47D
HT-29 = tested on: HT-29
KM12 = tested on: KM12
NCI-H460 = tested on: NCI-H460
HCC 2998 = tested on: HCC 2998
BT-549 = tested on: BT-549
SNB-19 = tested on: SNB-19
RPMI-8226 = tested on: RPMI-8226
EKVX = tested on: EKVX
OVCAR-8 = tested on: OVCAR-8
OVCAR-5 = tested on: OVCAR-5
HCT-116 = tested on: HCT-116
HL-60 = tested on: HL-60
SF-539 = tested on: SF-539
M14 = tested on: M14
MDA-MB-435 = tested on: MDA-MB-435

SMILES | GI50 (SK-OV-3) | GI50 (UACC-257) | GI50 (SW-620) | GI50 (RXF 393) | GI50 (T47D) | GI50 (HT-29) | GI50 (KM12) | GI50 (NCI-H460) | GI50 (HCC 2998) | GI50 (BT-549) | GI50 (SNB-19) | GI50 (RPMI-8226) | GI50 (EKVX) | GI50 (OVCAR-8) | GI50 (OVCAR-5) | GI50 (HCT-116) | GI50 (HL-60) | GI50 (SF-539) | GI50 (M14) | GI50 (MDA-MB-435)
COc1ccc(N2N=NN(C(C)C)/C2=C(/Cl)c2nnnn2-c2ccc(OC)cc2)cc1 | 18.2 µM (inactive) | 15.3 µM (inactive) | 1.82 µM (inactive) | 13.8 µM (inactive) | 4.55 µM (inactive) | 10.2 µM (inactive) | 17.1 µM (inactive) | 18.7 µM (inactive) | 19.5 µM (inactive) | 15.6 µM (inactive) | 16 µM (inactive) | 8.99 µM (inactive) | 18.2 µM (inactive) | 6.11 µM (inactive) | 13.6 µM (inactive) | 5 µM (inactive) | 2.45 µM (inactive) | 18.8 µM (inactive) | 8.81 µM (inactive) | 12.6 µM (inactive)
COC(=O)c1c2c(cc3c1CC1(C3)Cc3cc4c(c(C(C)=O)c3C1)CCC4)C=CC2 (stereo not given) | > 10 µM (inactive) | > 31.6 µM (inactive) | > 10 µM (inactive) | > 10 µM (inactive) | 5.69 µM (inactive) | 18.7 µM (inactive) | > 31.6 µM (inactive) | > 31.6 µM (inactive) | > 10 µM (inactive) | > 31.6 µM (inactive) | > 31.6 µM (inactive) | 14.2 µM (inactive) | > 31.6 µM (inactive) | > 31.6 µM (inactive) | > 31.6 µM (inactive) | 27.9 µM (inactive) | 16.7 µM (inactive) | > 31.6 µM (inactive) | > 31.6 µM (inactive) | 30.5 µM (inactive)
C[n+]1c2ccccc2n2c3ccccc3c(NCc3ccco3)c(C#N)c21 | 3.85 µM (inactive) | 3.48 µM (inactive) | 0.64 µM (active) | 1.65 µM (inactive) | 3.67 µM (inactive) | 2.7 µM (inactive) | 2.79 µM (inactive) | 1.1 µM (active) | 0.659 µM (active) | 18.5 µM (inactive) | 3.11 µM (inactive) | 0.546 µM (active) | 2.78 µM (inactive) | 1.24 µM (inactive) | 2.12 µM (inactive) | 0.957 µM (active) | 3.17 µM (inactive) | 0.959 µM (active) | 2.3 µM (inactive) | 1.76 µM (inactive)
